Measurements as given in patent publication US5750566A, “Synthetic excitatory amino acids” (Eli Lilly and Company, priority 1995, dated 1998).
Structures can show the parent of a compound that is named as a salt.

How the values were obtained:
[1] = system: metabotropic glutamate receptors; assay: Displacement of (1S,3R)-ACPD-sensitive [3H]glutamate binding to rat brain cell membranes (receptor binding); conditions: crude membranes of rat forebrain; compounds 3 and 8 tested as mixture of enantiomers, 6 and 7 as pure enantiomers; read-out: IC50 (concentration that inhibited 50% [3H]glutamate binding)
Protocol: The binding of [^3 H]glutamate ([^3 H]Glu) was conducted with crude membranes of rat forebrain as described by Schoepp and True. Schoepp and True, Neuroscience Lett., 145, 100-104 (1992); Wright, McDonald, and Schoepp, J. Neurochem., 63, 938-945 (1994). The concentration of the formula I compound that inhibited 50% binding (IC50), or the percent displacement of [^3 H]Glu at a 10 μM or 100 μM concentration of the formula I compound, is shown in Table I.

[2] = target: cAMP-linked metabotropic glutamate receptors (rat cerebral cortex); assay: Inhibition of forskolin-stimulated cAMP formation in rat cerebral cortex; format: biochemical
Protocol: (§1) The formula I compounds are effective in affecting the cAMP-linked metabotropic glutamate receptors. Representative compounds were tested for their ability to decrease forskolin-stimulated cAMP formation in the rat hippocampus and the rat cerebral cortex, using the procedures described in Schoepp and Johnson. Schoepp and Johnson, Neurochem. Int., 22, 277-283 (1993).

[3] = target: cAMP-linked metabotropic glutamate receptors (rat hippocampus); assay: Inhibition of forskolin-stimulated cAMP formation in rat hippocampus; format: biochemical
Protocol: as §1

[4] = system: mice; assay: Automated elevated plus maze model of anxiety; format: in vivo, mouse (male NIH Swiss); conditions: five-minute test
Protocol: The elevated plus maze model is based upon the natural aversion of rodents to height and open spaces.
(§2) Male Long Evans rats (180-400 g) or male NIH Swiss mice (18-35 g) were obtained from Harlan Sprague-Dawley, Cumberland, Ind., USA and acclimated at least 3 days before testing. Animals were housed at 23±2° C.(relative humidity 30% to 70%) and given Purina Certified Rodent Chow and water ad libitum. The photoperiod was 12 hours of light and 12 hours of dark, with dark onset at approximately 1800 hours.
(§3) Test compounds were dissolved in a vehicle of purified water and neutralized with 5N NaOH to a pH of 7-8 when applicable. […] Control animals received the respective vehicle.
Automated Elevated Plus Maze
Construction of the elevated plus-maze was based on a design validated for mice by Lister (1987). The entire maze was made of clear Plexiglas. The maze was comprised of two open arms (30×5×0.25 cm) and two enclosed arms (30×5×15 cm). The floor of each maze arm was corrugated to provide texture. The arms extended from a central platform and angled at 90 degrees from each other. The maze was elevated to a height of 45 cm above the floor and illuminated by red light. Individual infrared photocells were mounted along each arm of the maze to monitor closed, open, or nosepoke activity. Mice were individually placed on the central platform of the maze and the number of closed arm, open arm, and nosepoke (poking head only into open arm from closed arm of maze) counts were recorded and used as a measure of arm entries and time spent on various sections of the maze over a five-minute test period.

[5] = system: Long Evans rats; assay: Auditory startle after nicotine withdrawal; format: in vivo, rat (Long Evans)
Protocol: This cessation of drug dosing elicits an increased startle response to auditory stimuli.
Long Evans rats (200-400 g; Harlan Sprague Dawley, Columbus, Ind.) were individually housed in a controlled environment on a 12 hour light-dark cycle and given free access to food (Purina Rodent Chow) and water. Rats were anesthetized with isoflurane and Alzet osmotic pumps (Alza Corporation) were implanted subcutaneously.
Test compound was dissolved in a vehicle of purified water and neutralized with 5N NaOH to a PH of 7-8 when applicable. […] Nicotine (Research Biochemicals Inc., Natick, Mass.) was dissolved in saline. Control animals received the respective vehicle.
Twelve days following subcutaneous implantation of pumps, rats were anesthetized with isoflurane and the pumps were removed. During withdrawal (following pump removal), the auditory startle response (peak amplitude, Vmax) of individual rats was recorded using San Diego Instruments startle chambers (San Diego, Calif.). Startle sessions consisted of a 5-minute adaptation period at a background noise level of 70±2 dBA immediately followed by 25 presentations of auditory stimuli (120±2 dBA noise, 50 ms duration) presented at 8-second intervals. Peak startle amplitudes were then averaged for all 25 presentations of stimuli for each session and all data are presented here as overall session means. Auditory startle responding was evaluated daily on withdrawal days 1,2,3,4 or 5. Baseline startle responding was evaluated prior to pump removal on day 12.

[6] = system: Long Evans rats; assay: Auditory startle after diazepam withdrawal; format: in vivo, rat (Long Evans)
[7] = system: Long Evans rats; assay: Fear potentiated startle model of anxiety; format: in vivo, rat (male Long Evans)
From the text: In the fear potentiated startle model, animals are exposed to a neutral stimulus such as light (conditioned stimulus) with an aversive stimulus such as a shock (unconditioned stimulus). Following conditioning, when the animals are presented with a loud acoustic stimulus, larger startle responses are elicited when the startle stimulus is preceded by light.
as §2, §3
SL-LAB (San Diego Instruments, San Diego, Calif.) chambers were used for conditioning sessions and for the production and recording of startle responses. A classical conditioning procedure was used to produce potentiation of startle responses. Briefly, on the first 2 days, rats were placed into dark startle chambers in which shock grids were installed. […]

[8] = system: cAMP-linked metabotropic glutamate receptors; conditions: literature; cited from earlier work
[9] = system: PI-linked metabotropic glutamate receptors; conditions: literature; for L-CCG-I at higher concentrations; cited from earlier work
[10] = system: Long Evans rats; conditions: statement about clinically proven anxiolytics; cited from earlier work
[11] = system: mice; conditions: statement about clinically proven anxiolytics; cited from earlier work

`N[C@@]1(C(=O)O)CC[C@H]2[C@H](C(=O)O)[C@H]21` (racemic) [Compound 3, (1SR,2SR,5RS,6SR) 2-Aminobicyclo[3.1.0]hexane-2,6-dicarboxylic Acid] showed an IC50 [1] of 0.32 µM.
In the case of `N[C@@]1(C(=O)O)CC[C@H]2[C@@H](C(=O)O)[C@H]21` (racemic) [Compound 8, (1SR,2SR,5RS,6RS) 2-Aminobicyclo[3.1.0]hexane-2,6-dicarboxylic Acid], the IC50 [1] is reported as 3.2 µM.
With `NC1(C(=O)O)CCC2C(C(=O)O)C21` (single isomer, unassigned; (+)) [Compound 6, (+)-2-Aminobicyclo[3.1.0]hexane-2,6-dicarboxylic Acid] the IC50 [1] was 0.18 µM, the EC50 [2] was 0.055 ± 0.017 µM and the EC50 [3] was 0.036 ± 0.015 µM. For the same molecule, the nosepoke counts ([4]; oral, 3 mg/kg) was “significant increase”, the open arm activity ([4]; oral, 1, 3 and 10 mg/kg) was “significant increases” and the “closed arm activity counts” value ([4]; oral, any dose) was “not significantly altered”. For the same molecule, the “attenuation of heightened startle” value ([5]; 3 mg/kg, p.o., compared to nicotine controls) was “significant attenuation”, the ED50 ([5]; Rattus norvegicus, ip, compared to nicotine controls, route printed i.p., read-out: ED50, attenuation of nicotine withdrawal-induced heightened startle) was 0.7 mg/kg and the “withdrawal-induced increase in startle responding after pretreatment” value ([5]; pretreatment, nicotine withdrawal) was “dose-dependent blockade”. The “attenuation of enhanced startle” value ([6]; 0.1 and 0.3 mg/kg, p.o., compared to control responding) was “significantly attenuated enhanced startle”, the ED50 ([6]; Rattus norvegicus, po, read-out: ED50, attenuation of diazepam withdrawal-enhanced startle, p.o., compared to control responding) was 0.1 mg/kg and the “expected increase in startle responding following cessation of diazepam, after pretreatment” value ([6]; pretreatment, diazepam withdrawal) was “blocked the expected increase in startle responding”.
With `NC1(C(=O)O)CCC2C(C(=O)O)C21` (single isomer, unassigned; (-)) [Compound 7, (-)-2-Aminobicyclo[3.1.0]hexane-2,6-dicarboxylic Acid] the IC50 [1] was 161 µM, the EC50 [2] was 22 ± 3.4 µM and the EC50 [3] was 29.4 ± 3.04 µM. The “ED50, fear potentiated startle” value ([7]; p.o., Inactive = at highest dose tested, 10 mg/kg p.o.) was “Inactive”.
In the case of `N[C@@]1(C(=O)O)CC[C@@H](C(=O)O)C1` [1S,3R-ACPD, (1S,3R)-1-Aminocyclo-pentane-1,3-dicarboxylic acid], the “agonist activity at cAMP-linked metabotropic glutamate receptors” value [8] is listed as “agonist of PI-linked and cAMP-linked metabotropic glutamate receptors” and the “activity at PI-linked metabotropic glutamate receptors” value [9] is listed as “agonist of PI-linked and cAMP-linked metabotropic glutamate receptors”.
For `CN1C(=O)CN=C(c2ccccc2)c2cc(Cl)ccc21` [Diazepam, reference compound], the ED50 ([7]; Rattus norvegicus, po, read-out: ED50, fear potentiated startle) was 0.4 mg/kg, the “increased reactivity following diazepam cessation with diazepam replacement” value ([6]; 30 mg/kg, i.p. daily 60 minutes before evaluation, days 1 through 4, vs diazepam control) was “did not show increased reactivity” and the “increased startle responding with diazepam replacement” value ([6]; replacement 3 and 10 mg/kg, i.p.) was “did not block the increased startle responding”. For the same molecule, the “increased reactivity with diazepam replacement” value ([6]; replacement 3 and 10 mg/kg, i.p., in some instances) was “further increased reactivity”, the “reduction of fear (increased startle response) associated with presentation of light” value [10] was “effective at reducing the fear (increased startle response)” and the “reduction of fear of open spaces in elevated plus maze” value [11] was “reducing the fear of open spaces”.
For `N[C@H](C(=O)O)[C@H]1C[C@@H]1C(=O)O` [L-CCG-I, (2S,3S,4S)-2-(carboxycyclopropyl)glycine], the “agonist activity at cAMP-linked metabotropic glutamate receptors” value [8] is listed as “selective cAMP-linked metabotropic glutamate receptor agonist” and the “activity at PI-linked metabotropic glutamate receptors” value [9] is listed as “activity at PI-linked metabotropic receptors”.
In the case of `O=C1CC2(CCCC2)CC(=O)N1CCCCN1CCN(c2ncccn2)CC1` [buspirone hydrochloride], the “reduction of fear (increased startle response) associated with presentation of light” value [10] is given as “effective at reducing the fear (increased startle response)” and the “reduction of fear of open spaces in elevated plus maze” value [11] is given as “reducing the fear of open spaces”.
In the case of `CN1CCC[C@H]1c1cccnc1` [nicotine, reference compound], the “heightened startle response with nicotine replacement dose” value ([5]; 0.03 mg/kg, i.p., or higher) is reported as “did not display the same heightened startle response” and the “auditory startle responding following cessation of chronic nicotine exposure” value ([5]; first three days after cessation, vs control rats receiving water, nicotine 6 mg/kg/day s.c.) is reported as “significantly increased”.
